ChEMBL document CHEMBL1201861, “Genomics of Drug Sensitity in Cancer screening data, Wellcome Trust Sanger Institute”

What was measured:
Assay in all cases: cells
Format in all cases: functional, cell-based, Homo sapiens
SCC-15 = system: SCC-15;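 note: growth inhibition of SCC-15 cells, read out with a cell viability assay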
Description: SANGER: Inhibition of human SCC-15 cell growth in a cell viability assay.

SF-126 = system: SF-126;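 note: growth inhibition of human SF126 cells, read out with a cell viability assay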
Description: SANGER: Inhibition of human SF126 cell growth in a cell viability assay.

DSH1 = system: DSH1;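 note: growth inhibition of human DSH1 cells, measured with a cell viability readout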
Description: SANGER: Inhibition of human DSH1 cell growth in a cell viability assay.

KNS-81-FD = system: KNS-81-FD;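 note: growth inhibition of KNS-81-FD cells, read out with a cell viability assay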
Description: SANGER: Inhibition of human KNS-81-FD cell growth in a cell viability assay.

U-266 = system: U-266
Description: SANGER: Inhibition of human U-266 cell growth in a cell viability assay.

EOL1 = system: EOL1;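 note: growth inhibition of EoL-1 cells, read out by a cell viability assay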
Description: SANGER: Inhibition of human EoL-1-cell cell growth in a cell viability assay.

GB-1 = system: GB-1;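 note: growth of GB-1 cells judged by a viability assay, IC50 marks the concentration inhibiting growth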
Description: SANGER: Inhibition of human GB-1 cell growth in a cell viability assay.

NKM-1 = system: NKM-1;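 note: growth inhibition of NKM-1 cells, read out with a cell viability assay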
Description: SANGER: Inhibition of human NKM-1 cell growth in a cell viability assay.

KLE = system: KLE;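 note: growth inhibition of human KLE cells, read out with a cell viability assay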
Description: SANGER: Inhibition of human KLE cell growth in a cell viability assay.

NCI-H510A = system: NCI-H510A;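 note: growth inhibition of NCI-H510A cells, read out with a cell viability assay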
Description: SANGER: Inhibition of human NCI-H510A cell growth in a cell viability assay.

EW-18 = system: EW-18;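 note: growth inhibition of EW-18 cells, read out by a cell viability assay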
Description: SANGER: Inhibition of human EW-18 cell growth in a cell viability assay.

ES1 = system: ES1;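 note: growth inhibition of ES1 cells, read out with a cell viability assay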
Description: SANGER: Inhibition of human ES1 cell growth in a cell viability assay.

TGBC1TKB = system: TGBC1TKB;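 note: growth inhibition of TGBC1TKB cells, read out by a cell viability assay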
Description: SANGER: Inhibition of human TGBC1TKB cell growth in a cell viability assay.

MHH-NB-11 = system: MHH-NB-11;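 note: growth inhibition of human MHH-NB-11 cells, read out by a cell viability assay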
Description: SANGER: Inhibition of human MHH-NB-11 cell growth in a cell viability assay.

LB1047-RCC = system: LB1047-RCC;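 note: inhibition of cell growth, determined with a cell viability assay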
Description: SANGER: Inhibition of human LB1047-RCC cell growth in a cell viability assay.

COLO-684 = system: COLO-684
Description: SANGER: Inhibition of human COLO-684 cell growth in a cell viability assay.

LAN-6 = system: LAN-6;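 note: growth inhibition of LAN-6 cells, determined with a cell viability assay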
Description: SANGER: Inhibition of human LAN-6 cell growth in a cell viability assay.

CCRF-CEM = system: CCRF-CEM;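 note: inhibition of CCRF-CEM cell growth, measured by a cell viability assay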
Description: SANGER: Inhibition of human CCRF-CEM cell growth in a cell viability assay.

TE-12 = system: TE-12;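 note: growth inhibition of TE-12 cells, read out by a cell viability assay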
Description: SANGER: Inhibition of human TE-12 cell growth in a cell viability assay.

LXF-289 cell line = system: LXF-289 cell line
Description: SANGER: Inhibition of human LXF-289 cell growth in a cell viability assay.

SW872 = system: SW872;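 note: growth inhibition of SW872 cells, read out by a viability assay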
Description: SANGER: Inhibition of human SW872 cell growth in a cell viability assay.

TE-8 = system: TE-8;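 note: growth inhibition of TE-8 cells, measured with a cell viability readout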
Description: SANGER: Inhibition of human TE-8 cell growth in a cell viability assay.

ES7 = system: ES7;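 note: growth inhibition of cultured human ES7 cells, read out as cell viability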
Description: SANGER: Inhibition of human ES7 cell growth in a cell viability assay.

A253 cell line = system: A253 cell line;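 note: growth inhibition of A253 cells, read out with a cell viability assay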
Description: SANGER: Inhibition of human A253 cell growth in a cell viability assay.

NCI-H1648 = system: NCI-H1648;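 note: cell viability assay measuring inhibition of NCI-H1648 cell growth, from the Sanger screening data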
Description: SANGER: Inhibition of human NCI-H1648 cell growth in a cell viability assay.

LS-123 = system: LS-123
Description: SANGER: Inhibition of human LS-123 cell growth in a cell viability assay.

NB69 = system: NB69;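 note: growth inhibition of NB69 cells, determined by a cell viability assay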
Description: SANGER: Inhibition of human NB69 cell growth in a cell viability assay.

SK-UT-1 = system: SK-UT-1;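 note: growth inhibition of SK-UT-1 cells, measured by a cell viability assay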
Description: SANGER: Inhibition of human SK-UT-1 cell growth in a cell viability assay.

RPMI-8866 = system: RPMI-8866
Description: SANGER: Inhibition of human RPMI-8866 cell growth in a cell viability assay.

ML-2 = system: ML-2;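 note: growth inhibition of ML-2 cells, measured with a cell viability readout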
Description: SANGER: Inhibition of human ML-2 cell growth in a cell viability assay.

CP66-MEL = system: CP66-MEL;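 note: growth inhibition of CP66-MEL cells determined in a cell viability assay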
Description: SANGER: Inhibition of human CP66-MEL cell growth in a cell viability assay.

697 = system: 697
Description: SANGER: Inhibition of human 697 cell growth in a cell viability assay.

MHH-PREB-1 = system: MHH-PREB-1;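 note: cell viability assay measuring inhibition of proliferation of human MHH-PREB-1 cells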
Description: SANGER: Inhibition of human MHH-PREB-1 cell growth in a cell viability assay.

COLO-800 = system: COLO-800;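 note: growth inhibition of COLO-800 cells, read out with a cell viability assay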
Description: SANGER: Inhibition of human COLO-800 cell growth in a cell viability assay.

CTV-1 = system: CTV-1;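 note: growth inhibition of the cell line, read out with a cell viability assay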
Description: SANGER: Inhibition of human CTV-1 cell growth in a cell viability assay.

COLO-668 = system: COLO-668
Description: SANGER: Inhibition of human COLO-668 cell growth in a cell viability assay.

SW982 = system: SW982;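 note: growth inhibition of SW982 cells, read out with a cell viability assay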
Description: SANGER: Inhibition of human SW982 cell growth in a cell viability assay.

GT3TKB = system: GT3TKB;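 note: growth inhibition of the cell line, read out with a cell viability assay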
Description: SANGER: Inhibition of human GT3TKB cell growth in a cell viability assay.

EC-GI-10 = system: EC-GI-10
Description: SANGER: Inhibition of human EC-GI-10 cell growth in a cell viability assay.

no-11 = system: no-11;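 note: growth inhibition of human NO-11 cells, read out with a cell viability assay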
Description: SANGER: Inhibition of human no-11 cell growth in a cell viability assay.

VA-ES-BJ = system: VA-ES-BJ;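 note: growth inhibition of the VA-ES-BJ cell line, read out by a cell viability assay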
Description: SANGER: Inhibition of human VA-ES-BJ cell growth in a cell viability assay.

KMOE-2 = system: KMOE-2;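 note: growth inhibition of human KMOE-2 cells, read out with a cell viability assay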
Description: SANGER: Inhibition of human KMOE-2 cell growth in a cell viability assay.

BB49-HNC = system: BB49-HNC;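 note: cell viability assay read-out, reported as inhibition of BB49-HNC cell growth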
Description: SANGER: Inhibition of human BB49-HNC cell growth in a cell viability assay.

ONS-76 = system: ONS-76;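 note: growth inhibition of human ONS-76 cells, read out with a cell viability assay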
Description: SANGER: Inhibition of human ONS-76 cell growth in a cell viability assay.

TGBC24TKB = system: TGBC24TKB;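 note: growth inhibition of human TGBC24TKB cells, read out with a cell viability assay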
Description: SANGER: Inhibition of human TGBC24TKB cell growth in a cell viability assay.

HDLM-2 = system: HDLM-2;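 note: cell viability assay measuring suppression of HDLM-2 proliferation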
Description: SANGER: Inhibition of human HDLM-2 cell growth in a cell viability assay.

SNU1 = system: SNU1;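 note: growth inhibition of human NCI-SNU-1 cells, measured with a cell viability assay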
Description: SANGER: Inhibition of human NCI-SNU-1 cell growth in a cell viability assay.

SNB-75 = system: SNB-75;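 note: cell viability assay measuring growth inhibition of human SNB-75 cells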
Description: SANGER: Inhibition of human SNB75 cell growth in a cell viability assay.

COLO-829 = system: COLO-829
Description: SANGER: Inhibition of human COLO-829 cell growth in a cell viability assay.

`Oc1ccc2ccccc2c1SSc1c(O)ccc2ccccc12` showed an IC50 (SCC-15; Homo sapiens, SCC-15) greater than 32 µM, an IC50 (SF-126; Homo sapiens, SF-126) greater than 32 µM and an IC50 (DSH1; Homo sapiens, DSH1) greater than 32 µM. It also gave an IC50 (KNS-81-FD; Homo sapiens, KNS-81-FD) greater than 32 µM, an IC50 (U-266; Homo sapiens, U-266) greater than 32 µM and an IC50 (EOL1; Homo sapiens, EOL1) greater than 32000 nM. For the same molecule, the IC50 (GB-1; Homo sapiens, GB-1) was 2630 nM, the IC50 (NKM-1; Homo sapiens, NKM-1) was greater than 32000 nM and the IC50 (KLE; Homo sapiens, KLE) was greater than 32 µM. The IC50 (NCI-H510A; Homo sapiens, NCI-H510A) was greater than 32000 nM, the IC50 (EW-18; Homo sapiens, EW-18) was greater than 32 µM and the IC50 (ES1; Homo sapiens, ES1) was greater than 32000 nM. For the same molecule, the IC50 (TGBC1TKB; Homo sapiens, TGBC1TKB) was greater than 32 µM, the IC50 (MHH-NB-11; Homo sapiens, MHH-NB-11) was greater than 32000 nM and the IC50 (LB1047-RCC; Homo sapiens, LB1047-RCC) was greater than 32000 nM. For the same molecule, the IC50 (COLO-684; Homo sapiens, COLO-684) was 20.3 µM, the IC50 (LAN-6; Homo sapiens, LAN-6) was greater than 32 µM and the IC50 (CCRF-CEM; Homo sapiens, CCRF-CEM) was 5.98 µM. For the same molecule, the IC50 (TE-12; Homo sapiens, TE-12) was greater than 32000 nM, the IC50 (LXF-289 cell line; Homo sapiens, LXF-289) was greater than 32000 nM and the IC50 (SW872; Homo sapiens, SW872) was 7.84 µM. For the same molecule, the IC50 (TE-8; Homo sapiens, TE-8) was greater than 32000 nM, the IC50 (ES7; Homo sapiens, ES7) was greater than 32000 nM and the IC50 (A253 cell line; Homo sapiens, A253) was greater than 32000 nM. It also gave an IC50 (NCI-H1648; Homo sapiens, NCI-H1648) greater than 32 µM, an IC50 (LS-123; Homo sapiens, LS-123) of 8.8 µM and an IC50 (NB69; Homo sapiens, NB69) of 6.76 µM. The IC50 (SK-UT-1; Homo sapiens, SK-UT-1) was greater than 32000 nM, the IC50 (RPMI-8866; Homo sapiens, RPMI-8866) was greater than 32 µM and the IC50 (ML-2; Homo sapiens, ML-2) was 26.4 µM. The IC50 (CP66-MEL; Homo sapiens, CP66-MEL) was greater than 32 µM, the IC50 (697; Homo sapiens) was greater than 32000 nM and the IC50 (MHH-PREB-1; Homo sapiens, MHH-PREB-1) was 3.47 µM. For the same molecule, the IC50 (COLO-800; Homo sapiens, COLO-800) was greater than 32000 nM, the IC50 (CTV-1; Homo sapiens, CTV-1) was 9.36 µM and the IC50 (COLO-668; Homo sapiens, COLO-668) was greater than 32000 nM. For the same molecule, the IC50 (SW982; Homo sapiens, SW982) was greater than 32000 nM, the IC50 (GT3TKB; Homo sapiens, GT3TKB) was greater than 32000 nM and the IC50 (EC-GI-10; Homo sapiens, EC-GI-10) was greater than 32 µM. For the same molecule, the IC50 (no-11; Homo sapiens) was greater than 32 µM, the IC50 (VA-ES-BJ; Homo sapiens, VA-ES-BJ) was greater than 32000 nM and the IC50 (KMOE-2; Homo sapiens, KMOE-2) was greater than 32 µM. It also gave an IC50 (BB49-HNC; Homo sapiens, BB49-HNC) greater than 32 µM, an IC50 (ONS-76; Homo sapiens, ONS-76) greater than 32000 nM and an IC50 (TGBC24TKB; Homo sapiens, TGBC24TKB) greater than 32 µM. The IC50 (HDLM-2; Homo sapiens, HDLM-2) was greater than 32 µM, the IC50 (SNU1; Homo sapiens, SNU1) was greater than 32000 nM and the IC50 (SNB-75; Homo sapiens, SNB-75) was greater than 32000 nM. It also gave an IC50 (COLO-829; Homo sapiens, COLO-829) greater than 32 µM.

BLEOMYCIN was tested, and the IC50 (SCC-15; scc-15) was 27.6 µM, the IC50 (SF-126; sf-126) was 3.09 µM and the IC50 (DSH1; dsh1) was 155 µM. For the same molecule, the IC50 (KNS-81-FD; kns-81-fd) was 664 µM, the IC50 (U-266; u-266) was 282 µM and the IC50 (EOL1; eol1) was 2420 nM. The IC50 (GB-1; gb-1) was 390 nM, the IC50 (NKM-1; nkm-1) was 7.65 nM and the IC50 (KLE; kle) was 21.2 µM. It also gave an IC50 (NCI-H510A; nci-h510a) of 1090 nM, an IC50 (EW-18; ew-18) of 75.8 µM and an IC50 (ES1; es1) of 26.7 nM. It also gave an IC50 (TGBC1TKB; tgbc1tkb) of 74.1 µM, an IC50 (MHH-NB-11; mhh-nb-11) of 2010 nM and an IC50 (LB1047-RCC; lb1047-rcc) of 32.5 nM. It also gave an IC50 (COLO-684; colo-684) of 237 µM, an IC50 (LAN-6; lan-6) of 14.6 µM and an IC50 (CCRF-CEM; ccrf-cem) of 0.0787 µM. For the same molecule, the IC50 (TE-12; te-12) was 719 nM, the IC50 (LXF-289 cell line; lxf-289) was 644 nM and the IC50 (SW872; sw872) was 3.45 µM. For the same molecule, the IC50 (TE-8; te-8) was 377 nM, the IC50 (ES7; es7) was 378 nM and the IC50 (A253 cell line; a253) was 2860 nM. It also gave an IC50 (NCI-H1648; nci-h1648) of 20.3 µM, an IC50 (LS-123; ls-123) of 23.4 µM and an IC50 (NB69; nb69) of 0.923 µM. The IC50 (SK-UT-1; sk-ut-1) was 6.29 nM, the IC50 (RPMI-8866; rpmi-8866) was 7.91 µM and the IC50 (ML-2; ml-2) was 0.132 µM. It also gave an IC50 (CP66-MEL; cp66-mel) of 957 µM, an IC50 697 of 1580 nM and an IC50 (MHH-PREB-1; mhh-preb-1) of 836 µM. It also gave an IC50 (COLO-800; colo-800) of 2210 nM, an IC50 (CTV-1; ctv-1) of 4.92 µM and an IC50 (COLO-668; colo-668) of 0.0218 nM. The IC50 (SW982; sw982) was 417 nM, the IC50 (GT3TKB; gt3tkb) was 6.85 nM and the IC50 (EC-GI-10; ec-gi-10) was 305 µM. For the same molecule, the IC50 (no-11) was 85.6 µM, the IC50 (VA-ES-BJ; va-es-bj) was 260 nM and the IC50 (KMOE-2; kmoe-2) was 544 µM. The IC50 (BB49-HNC; bb49-hnc) was 38.8 µM, the IC50 (ONS-76; ons-76) was 854 nM and the IC50 (TGBC24TKB; tgbc24tkb) was 204 µM. The IC50 (HDLM-2; hdlm-2) was 14.3 µM, the IC50 (SNU1; snu1) was 2840 nM and the IC50 (SNB-75; snb-75) was 1610 nM. For the same molecule, the IC50 (COLO-829; colo-829) was 37 µM.
